Test results as given in US7323489B2, “Proline ester and preparation containing the same for percutaneous administration” (Toaeiyo Ltd., priority 2002, dated 2008).

How the values were obtained:
[1] = Stability test (storage in isopropyl myristate, HPLC peak area ratio); assay type: physicochemical
Description: About 5 mg of each of Inventive Compounds 1 to 5 and enalapril was put in a glass vial. Isopropyl myristate (100 μL) was added, to thereby yield a solution (or suspension). The vial was tightly sealed and stored in a 60° C. thermostatic chamber for one week. Methanol was added to the solution contained in the vial until the total volume of the solution mixture became 100 mL. The resultant solution was employed as a test solution to be subjected to an HPLC analysis. Peak area ratio (expressed by percentage) of each compound with respect to a sum of all the obtained peak areas was calculated.

[2] = tested on: three-dimensional cultured human skin model (LSE-high, Toyobo Co., Ltd.); test: Metabolism test by use of cultured human skin; assay type: in vitro ADME; conditions: receptor phase PBS pH 7.4, 24 hours, 1.0 mass % in isopropyl myristate, 200 μL applied, 37° C.
Description: A sample of a three-dimensional cultured human skin model (LSE-high, Toyobo Co., Ltd.) was set in a vertical diffusion cell whose temperature was maintained at 37° C., and the receptor phase of the cell was filled with 7 mL isotonic phosphate buffer (PBS, pH 7.4). The cell was allowed to stand for one hour. Each of Inventive Compounds 1 to 3 and enalapril (serving as a Comparative Example) was dissolved or suspended in isopropyl myristate so as to attain a concentration of 1.0 mass %. The solution (200 μL) was applied to the skin sample, whereby the test started. When 24 hours had passed after the test started, the concentrations of proline esters or enalapril (i.e., a prodrug of enalaprilat) which remained unchanged, and the transformed product enalaprilat contained in PBS in the receptor phase were determined through HPLC. From the obtained data, concentration ratio of “proline esters or enalapril”: “enalaprilat” was calculated (presence ratio).

[3] = in the skin and in the plasma; cited from earlier work
[4] = storage at 60° C. for 1 week, HPLC peak area ratio

| Compound | Area ratio: Closed ring product [1, 4] | Area ratio: Enalaprilat [1, 4] | Area ratio: Proline ester compound [1, 4] | Presence ratio: proline ester or enalapril (unchanged) part of concentration ratio [2] | Stability on storage (in words) ([1]; 60° C., one week) | Area ratio: Enalapril [1, 4] | Conversion of percutaneously absorbed enalapril to enalaprilat (in words) [3] |
| --- | --- | --- | --- | --- | --- | --- | --- |
| C[C@H](N[C@@H](CCc1ccccc1)C(=O)O)C(=O)N1CCC[C@H]1C(=O)OCCO [Inventive Compound 1, 1-[N-[(1S)-1-Carboxy-3-phenylpropyl]-L-alanyl]-L-proline 2-hydroxyethyl ester] | 0.0% | 0.0% | 91.8% | 23.5 | – | – | – |
| CCOC(=O)[C@H](CCc1ccccc1)N[C@@H](C)C(=O)N1CCC[C@H]1C(=O)O [Enalapril, reference compound] | 48.4% | 0.0% | – | 98.8 | completely degraded | 0.0% | not converted to enalaprilat |
| C[C@H](N[C@@H](CCc1ccccc1)C(=O)O)C(=O)N1CCC[C@H]1C(=O)OCCCO [Inventive Compound 2, 1-[N-[(1S)-1-Carboxy-3-phenylpropyl]-L-alanyl]-L-proline 3-hydroxypropyl ester] | 0.0% | 0.0% | 96.7% | 36.3 | – | – | – |
| C[C@H](N[C@@H](CCc1ccccc1)C(=O)O)C(=O)N1CCC[C@H]1C(=O)OCCCCO [Inventive Compound 3, 1-[N-[(1S)-1-Carboxy-3-phenylpropyl)-L-alanyl]-L-proline 4-hydroxybutyl ester] | 0.0% | 0.0% | 94.4% | 30.4 | – | – | – |
| COCCOCCOC(=O)[C@@H]1CCCN1C(=O)[C@H](C)N[C@@H](CCc1ccccc1)C(=O)O [Inventive Compound 5, 1-[N-[(1S)-1-Carboxy-3-phenylpropyl]-L-alanyl]-L-proline 2-(2-methoxyethoxy)ethyl ester] | 0.0% | 0.0% | 94.2% | – | – | – | – |
| COCCOC(=O)[C@@H]1CCCN1C(=O)[C@H](C)N[C@@H](CCc1ccccc1)C(=O)O [Inventive Compound 4, 1-[N-[(1S)-1-Carboxy-3-phenylpropyl]-L-alanyl]-L-proline 2-methoxyethyl ester] | 0.0% | 0.0% | 99.1% | – | – | – | – |
